Laboratory results taken from publication PMC9916857, “Triterpenoids from Kochiae Fructus: Glucose Uptake in 3T3-L1 Adipocytes and α-Glucosidase Inhibition, In Silico Molecular Docking” (International Journal of Molecular Sciences, 2023).
“Also recorded” adds a separate entry of the source. Marks after values point to notes of the source that are not given here.

How the values were obtained:
[1] = tested on: α-glucosidase; assay: In vitro α-glucosidase inhibition assay (pNPG substrate); format: biochemical; conditions: for Inhibitory Rate (%): mean ± SD (n = 3); for IC50: mean ± SD, n = 3
Procedure: The α-glucosidase inhibition assay was carried out on the basis of the method reported by Zhang et al., with minor modifications. […] […] To initiate the reaction, pNPG (40 μL) was added to the reaction mixture and incubated at 37 °C for 30 min. The reaction was terminated by adding 20 μL of Na2CO3, after which the absorbance was determined at 405 nm by a microplate reader (SpectraMax190, Micro-g Biotech, Guangzhou, China).

[2] = target: α-glucosidase−pNPG complex; assay: Kinetics of α-glucosidase inhibition, S/v versus [I] plot (Ki’); format: biochemical
Procedure: (§1) The kinetic analysis of compounds 3, 9, and 13 were measured using the reaction conditions in Section 3.6. Typically, three different concentrations of each compound around the IC50 values were chosen. Under each concentration, α-glucosidase activity was assayed by varying the concentration of pNPG as a substrate. […] Ki and Ki’ values were determined from 1/v versus [I] (Dixon plot) and S/v versus [I] plots, respectively.

[3] = target: α-glucosidase; assay: Kinetics of α-glucosidase inhibition (Lineweaver–Burk and Dixon plots); format: biochemical; conditions: for Ki: Dixon plot, 1/v versus [I], read-out: Ki (inhibitor binding to α-glucosidase); for Inhibition type: Lineweaver–Burk and Dixon plots; for Change of Km and Vmax with increased concentration of inhibitor: Lineweaver–Burk plot
Procedure: as §1

[4] = tested on: 3T3-L1 adipocytes; assay: Insulin-induced glucose uptake assay in 3T3-L1 adipocytes; format: cell-based, murine
Procedure: (§2) The murine 3T3-L1 preadipocytes were supplied by the American Type Culture Collection (ATCC, Manassas, VA, USA). The cells were cultured in high-glucose DMEM supplemented with 10% (v/v) newborn calf serum (NBCS), 1% (v/v) Pen-Strep solution (P/S) at 37 °C in a humidified atmosphere of 5% CO2, and then starved until the cells reached confluence (day 0). Two days later (day 2), the cells were cultured in DMEM supplemented with 10% (v/v) fetal bovine serum (FBS), 1% (v/v) P/S, 0.5 mM 3-isobutyl-1-methylxanthine (IBMX), 1 μM dexamethasone (DEX), 1 μM rosiglitazone (ROSI) and 100 nM insulin. Three days after (day 5) the induction, the culture medium was replaced with DMEM containing 10% (v/v) FBS, 1% (v/v) P/S, and 100 nM insulin for one day (day 6). Then the cells were completely differentiated into mature adipocytes (Figure 11).
The mature adipocytes were inoculated in a 96-well plate at 5 × 10^4 cells per well for 24 h. The 3T3-L1 adipocytes were divided into model groups (blank control), insulin group (250 ng/mL, positive control), and sample group (20 μM). […] The absorbance value was detected by a microplate reader at 505 nm. The glucose uptake rate was calculated as follows:Glucose uptake rate (%) = [1 − A2/A1] × 100(1) where A1 is the absorbance of the mixed-glucose, DMEM-supplemented control, and A2 is the absorbance of the blank, insulin, or sample group.

[5] = tested on: 3T3-L1 adipocytes; assay: Cell viability (CellTiter 96 AQueous One Solution) after the glucose uptake experiment; format: cell-based, murine; conditions: compounds at 20 μM, compared to the control group
Procedure: as §2, with “Then the cells were completely differentiated into mature adipocytes (Figure 11).” left out
Cell viability was detected by using a CellTiter 96® AQueous One Solution Cell Proliferation Assay (Promega Corporation, Madison, WI, USA) according to the manufacturer’s instructions after the glucose uptake experiment. CellTiter 96® AQueous One Solution Cell Proliferation Assay reagent (20 µL/well) was added to the plate and incubated at 37 °C for 180 min before absorbance was measured at 490 nm, and the relative cell viability was calculated as follows:Relative cell viability (%) = A1/A2 × 100(2) where […].

[6] = percent inhibition at a concentration of 50 μM

| Compound | IC50 [1] | Inhibitory Rate (%) [1, 6] | further results |
| --- | --- | --- | --- |
| C[C@H]1O[C@H](O[C@H]2[C@H](O)[C@@H](O)[C@@H](O[C@H]3[C@H](O)[C@@H](O)C(O)O[C@@H]3CO)O[C@@H]2CO)[C@H](O)[C@@H](O)[C@@H]1N[C@H]1C=C(CO)[C@@H](O)[C@H](O)[C@H]1O (some centres unmarked) [Acarbose, acarbose, reference compound] | – | – | Inhibitory Rate (%) ([1]; percent inhibition at a concentration of 0.012 μM): 87.04 ± 0.29 ^a % |
| CC1(C)CCC2(C(=O)O)CCC3(C)C(=CCC4C5(C)CCC(OC6OC(C(=O)O)C(O)C(OC7OCC(O)C(O)C7O)C6O)C(C)(C(=O)O)C5CCC43C)C2C1 [Compound 1, 3(β)-3-O-β-D-xylopyranosly(1→3)-β-D-glucopyranosiduronic acid-12-en-23,28-dioic acid] | > 50 µM | 13.71 ± 0.54 ^j % | – |
| COC(=O)C1OC(OC2CCC3(C)C(CCC4(C)C3CC=C3C5CC(C)(C)CCC5(C(=O)O)CCC34C)C2(C)C(=O)O)C(O)C(OC2OCC(O)C(O)C2O)C1O [Compound 2, 3(β)-3-O-β-D-xylopyranosly(1→3)-β-D-glucopyranosiduronic acid 6-methyl ester-12-en-23,28-dioic acid] | > 50 µM | 14.05 ± 4.90 ^j % | – |
| CC1(C)CCC2(C(=O)OC3OC(CO)C(O)C(O)C3O)CCC3(C)C(=CCC4C5(C)CC(O)C(O)C(C)(C)C5CCC43C)C2C1 [Compound 3, 2β,3β-dihydroxyolean-12-en-28-oic acid 28-O-β-D-glucopyranoside] | 23.5 ± 3.37 µM | 59.79 ± 1.04 ^d % | Ki’ (inhibitor binding to the α-glucosidase−pNPG complex) [2]: 47.89 ± 1.37 μM; Ki [3]: 56.9 ± 1.23 µM; Inhibition type [3]: mixed-type; Change of Km and Vmax with increased concentration of inhibitor [3]: Vmax values decreased and the Km values increased |
| CC1(C)CC[C@]2(C(=O)O)CC[C@]3(C)C(=CC[C@@H]4[C@@]5(C)CC[C@H](O[C@@H]6O[C@H](C(=O)O)[C@@H](O)[C@H](O[C@@H]7OC[C@@H](O)[C@H](O)[C@H]7O)[C@H]6O)C(C)(C)[C@@H]5CC[C@]43C)[C@@H]2C1 [Compound 4, momordin Ic] | > 50 µM | 26.28 ± 1.01 ^i % | – |
| COC(=O)C1OC(OC2CCC3(C)C(CCC4(C)C3CC=C3C5CC(C)(C)CCC5(C(=O)O)CCC34C)C2(C)C)C(O)C(OC2OCC(O)C(O)C2O)C1O (centres unmarked) [Compound 5, momordin Ic 6’-methyl ester] | > 50 µM | 29.62 ± 2.26 ^i % | – |
| CCOC(=O)C1OC(OC2CCC3(C)C(CCC4(C)C3CC=C3C5CC(C)(C)CCC5(C(=O)O)CCC34C)C2(C)C)C(O)C(OC2OCC(O)C(O)C2O)C1O (centres unmarked) [Compound 6, momordin Ic ethyl ester] | > 50 µM | 35.00 ± 0.40 ^h % | – |
| CC1(C)CC[C@]2(C(=O)O[C@@H]3O[C@H](CO)[C@@H](O)[C@H](O)[C@H]3O)CC[C@]3(C)C(=CC[C@@H]4[C@@]5(C)CC[C@H](O[C@@H]6O[C@H](C(=O)O)[C@@H](O)[C@H](O[C@@H]7OC[C@@H](O)[C@H](O)[C@H]7O)[C@H]6O)C(C)(C)[C@@H]5CC[C@]43C)[C@@H]2C1 [Compound 7, momordin IIc] | > 50 µM | 52.71 ± 0.85 ^f % | – |
| COC(=O)C1OC(OC2CCC3(C)C(CCC4(C)C3CC=C3C5CC(C)(C)CCC5(C(=O)OC5OC(CO)C(O)C(O)C5O)CCC34C)C2(C)C)C(O)C(OC2OCC(O)C(O)C2O)C1O (centres unmarked) [Compound 8, momordin IIc 6’-methyl ester] | > 50 µM | 57.02 ± 36.3 ^e % | – |
| CC1(C)CCC2(C(=O)OC3OC(CO)C(O)C(O)C3O)CCC3(C)C(=CCC4C5(C)CCC(OC6OC(C(=O)O)C(O)C(OC7OCC(O)C(O)C7O)C6OC6OC(CO)C(O)C(O)C6O)C(C)(C)C5CCC43C)C2C1 [Compound 9, 2’-O-β-D-glucopyranosyl momordin IIc] | 4.29 ± 0.52 µM | 74.41 ± 1.02 ^b % | Ki’ (inhibitor binding to the α-glucosidase−pNPG complex) [2]: 19.52 ± 0.26 μM; Ki [3]: 48.88 ± 0.07 µM; Inhibition type [3]: mixed-type; Change of Km and Vmax with increased concentration of inhibitor [3]: both the Km and Vmax values decreased |
| CC1(C)CC[C@]2(C(=O)O)CC[C@]3(C)C(=CC[C@@H]4[C@@]5(C)CC[C@H](O)[C@@](C)(C(=O)O)[C@@H]5CC[C@]43C)[C@@H]2C1 [Compound 11, gypsogenic acid] | > 50 µM | 53.98 ± 1.65 ^e % | – |
| CC1(C)CCC2(C(=O)OC3OC(CO)C(O)C(O)C3O)CCC3(C)C(=CCC4C5(C)CCC(O)C(C)(C)C5CCC43C)C2C1 [Compound 12, oleanolic acid 28-O-β-D-glucopyranosyl ester] | – | 41.48 ± 1.66 ^g % | – |
| CC1(C)CC2C3=CCC4[C@@]5(C)CC[C@H](O)C(C)(C)C5CC[C@@]4(C)[C@]3(C)CC[C@@]2(C(=O)O)[C@H](O)C1 (some centres unmarked) [Compound 13] | 17 ± 2.7 µM | 69.91 ± 0.59 ^c % | Ki’ (inhibitor binding to the α-glucosidase−pNPG complex) [2]: 8.82 ± 0.06 μM; Effect on glucose uptake ([4]; compound at 20 μM, 24 h, p < 0.001 versus model group): potent effect; also recorded: strong effect; also recorded: significant promotion; Cell viability / cytotoxicity [5]: without inhibitory effects on cell viability; Ki [3]: 13.6 ± 0.42 µM; Inhibition type [3]: mixed-type; Change of Km and Vmax with increased concentration of inhibitor [3]: both the Km and Vmax values decreased |
| CC1(C)C=C2C3CCC4[C@@]5(C)CC[C@H](O[C@@H]6O[C@H](CO)[C@@H](O)[C@H](O)[C@H]6O)C(C)(C)C5CC[C@@]4(C)[C@]3(C)CC[C@@]2(C(=O)O)CC1 (stereo partly drawn) [Compound 14, (3β)-3-(β-D-glucopyranosyloxy)olean-18-en-28-oic acid] | > 50 µM | 17.49 ± 4.45 ^j % | – |
| insulin | – | – | Effect on glucose uptake ([4]; insulin at 250 ng/mL (positive control), p < 0.001 versus control group): significantly promote |
